Data on three molecules can be found in publication PMC8881610 (Nature Communications, 2022).

In general, Emax refers to the maximal effect, on the per cent scale that the assay sets.

Assay [1] deals with GCGR (Homo sapiens, UniProt P47871, Q293A). The experiment in a line: cAMP accumulation assay, GCGR WT, mutant or modified constructs. It is filed as cell-based. The note with it: GCGR Q293A, HEK293T. More on the design: V5 (C); 6×His (C); expressed in transfected cells; host or cells: HEK293T. How it is done: Human embryonic kidney 293 cells containing SV40 large T-antigen (HEK293T) were cultured in DMEM (Gibco) supplemented with 10% (v/v) fetal bovine serum (FBS, Gibco), 1 mM sodium pyruvate (Gibco) and 100 units/mL penicillin and 100 μg/mL streptomycin at 37 °C in 5% CO2. Chinese hamster ovary (CHO-K1) cells were cultured in F-12 (Gibco) containing 10% FBS, 100 units/mL penicillin and 100 μg/mL streptomycin at 37 °C in 5% CO2. For cAMP and receptor expression assays, HEK293T cells were seeded into 6-well cell culture plates at a density of 7 × 10^5 cells per well. After overnight incubation, cells were transfected with GIPR, GLP-1R or GCGR construct using Lipofectamine 2000 or Lipofectamine 3000 transfection reagent (Invitrogen). For whole-cell binding assay, CHO-K1 cells were seeded into 96-well fibronectin-treated cell culture plates at a density of 3 × 10^4 cells per well. After overnight incubation, cells were transfected with GIPR, GLP-1R or GCGR construct using Lipofectamine 2000 transfection reagent (Invitrogen). Following 24 h culturing, the transfected cells were ready for use. […]
GCGR, sequence (P47871 26-477 Q293A): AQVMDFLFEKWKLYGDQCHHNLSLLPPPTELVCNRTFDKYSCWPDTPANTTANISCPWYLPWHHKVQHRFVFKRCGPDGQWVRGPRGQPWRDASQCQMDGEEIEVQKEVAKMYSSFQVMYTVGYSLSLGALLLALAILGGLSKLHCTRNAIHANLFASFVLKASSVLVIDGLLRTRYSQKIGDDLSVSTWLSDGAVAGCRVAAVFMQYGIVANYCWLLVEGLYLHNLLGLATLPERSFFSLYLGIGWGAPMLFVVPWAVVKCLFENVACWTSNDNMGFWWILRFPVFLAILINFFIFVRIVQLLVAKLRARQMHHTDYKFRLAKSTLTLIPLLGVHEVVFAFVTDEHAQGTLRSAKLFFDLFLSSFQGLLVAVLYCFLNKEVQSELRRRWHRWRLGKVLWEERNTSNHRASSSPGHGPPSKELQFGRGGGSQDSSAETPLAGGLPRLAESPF
For GIPR, GLP-1R and GCGR, multi-targeting agonist stimulated cAMP accumulation was measured by a LANCE Ultra cAMP kit (PerkinElmer). After 24 h culture, the transfected cells were seeded into 384-well microtiter plates at a density of 3,000 cells per well in HBSS supplemented with 5 mM HEPES, 0.1% (w/v) BSA or 0.1% (w/v) casein and 0.5 mM 3-isobutyl-1-methylxanthine. The cells were stimulated with different concentrations of peptide agonists for 40 min at RT. Eu-cAMP tracer and ULight^TM-anti-cAMP were then diluted by cAMP detection buffer and added to the plates separately to terminate the reaction. Plates were incubated at RT for 1 h and the fluorescence intensity measured at 620 nm and […] by an EnVision multilabel plate reader (PerkinElmer).
A general note: Changes in cAMP serve as a functional read-out for many G protein-coupled receptors.

The target in assay [2] is GLP-1R (Homo sapiens, UniProt P43220, Y148A). Put plainly: cAMP accumulation assay, GLP-1R WT, mutant or modified constructs. It is filed as cell-based. More on the design: Flag; expressed in transfected cells; host or cells: HEK293T. The settings on record: GLP-1R Y148A, HEK293T; for Emax: HEK-293T. A digest of the protocol: (§1)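 HEK293T cells transiently expressing wild-type, mutant or modified human GLP-1R (HA signal peptide constructs) were used. Cells were stimulated with peptide agonists for 40 min at room temperature in HBSS with 0.5 mM IBMX and 0.1% BSA or casein. cAMP was quantified by LANCE Ultra TR-FRET (620/650 nm).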
GLP-1R (Homo sapiens, UniProt P43220, Y148A), sequence (P43220 24-463 Y148A): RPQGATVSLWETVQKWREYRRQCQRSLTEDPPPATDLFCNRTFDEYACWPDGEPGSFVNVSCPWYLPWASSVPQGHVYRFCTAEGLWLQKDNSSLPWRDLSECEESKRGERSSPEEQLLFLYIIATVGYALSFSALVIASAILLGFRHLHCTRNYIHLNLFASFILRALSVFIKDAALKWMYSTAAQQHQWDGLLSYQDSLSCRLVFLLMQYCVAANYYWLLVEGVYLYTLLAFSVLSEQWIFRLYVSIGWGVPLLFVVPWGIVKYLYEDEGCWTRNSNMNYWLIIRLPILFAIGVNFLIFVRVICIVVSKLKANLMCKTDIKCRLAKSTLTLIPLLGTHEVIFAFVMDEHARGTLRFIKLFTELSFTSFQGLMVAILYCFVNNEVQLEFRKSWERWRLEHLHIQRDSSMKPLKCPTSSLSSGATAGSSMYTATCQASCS

For assay [3], the target named is GLP-1R (Homo sapiens, UniProt P43220, W214A). The assay is described as above. It is filed as cell-based. More on the design: Flag; expressed in transfected cells; host or cells: HEK293T. The note with it: GLP-1R W214A, HEK293T; for Emax: HEK-293T. The essentials: as §1
GLP-1R (Homo sapiens, UniProt P43220, W214A), sequence (P43220 24-463 W214A): as the sequence (P43220 24-463 Y148A) above, with A125Y, W191A counted along it
For assay [4], the target named is T1, GIPR (Homo sapiens, UniProt P48546).
T1 sequence (P48546 22-466): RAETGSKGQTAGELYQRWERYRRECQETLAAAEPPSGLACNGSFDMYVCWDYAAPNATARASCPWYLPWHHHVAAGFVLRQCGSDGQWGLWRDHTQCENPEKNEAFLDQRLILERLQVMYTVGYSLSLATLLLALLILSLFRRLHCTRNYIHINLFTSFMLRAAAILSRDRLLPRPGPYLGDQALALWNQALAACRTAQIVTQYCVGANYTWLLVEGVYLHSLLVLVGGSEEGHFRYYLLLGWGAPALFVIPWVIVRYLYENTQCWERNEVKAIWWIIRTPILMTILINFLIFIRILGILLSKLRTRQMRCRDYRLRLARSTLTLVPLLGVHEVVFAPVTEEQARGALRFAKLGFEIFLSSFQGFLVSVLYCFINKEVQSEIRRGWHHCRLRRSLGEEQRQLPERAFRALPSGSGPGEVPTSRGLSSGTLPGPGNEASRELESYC
The experiment in a line: β-arrestin 2 recruitment (BRET). The assay is classed as cell-based. Further details: expressed in transfected cells; host or cells: HEK293T. The settings on record: GIPR WT, HEK293T; for EC50: read-out: β-arrestin 2 recruitment pEC50 (converted); for Emax: HEK-293T. Here is the method: After cells were grown for 24 h, transiently transfected cells were then seeded onto poly-D-lysine coated 96-well culture plates (50,000 cells/well) in DMEM with 10% FBS. Cells were grown for 20 h before incubation in assay buffer (HBSS supplemented with 10 mM HEPES, 0.1% BSA or 0.1% casein, pH 7.4) for 30 min at 37 °C. Coelentrazine-h (Yeasen Biotech) was added to a final concentration of 5 μM for 5 min before bioluminescence resonance energy transfer (BRET) readings were made using an EnVision plate reader (PerkinElmer). BRET baseline measurements were collected for 15 cycles prior to ligand addition. After which, BRET was measured for 55 cycles.
A general note: Arrestin recruitment assays detect the binding of arrestin to an activated receptor.

The conditions of assay [5]: clinical trial outcome; Drugs@FDA, ChemBL, ClinicalTrials.gov; cited from earlier work.
Where [6] appears, read: read-out: cAMP pEC50 (converted).

As for `CCCCCCCCCCCCCCCC(=O)N[C@@H](CCC(=O)NCCCC[C@H](NC(=O)[C@H](CC(=O)O)NC(=O)[C@H](CO)NC(=O)[C@@H](NC(=O)[C@H](Cc1ccccc1)NC(=O)[C@@H](NC(=O)CNC(=O)[C@H](CCC(N)=O)NC(=O)C(C)(C)NC(=O)[C@@H](N)Cc1c[nH]cn1)[C@@H](C)O)[C@@H](C)O)C(=O)N[C@@H](CO)C(=O)N[C@@H](CCCCN)C(=O)N[C@@H](Cc1ccc(O)cc1)C(=O)N[C@@H](CC(C)C)C(=O)N[C@@H](CC(=O)O)C(=O)N[C@@H](CCC(=O)O)C(=O)N[C@@H](CCCNC(=N)N)C(=O)N[C@@H](C)C(=O)N[C@@H](C)C(=O)N[C@@H](CCC(N)=O)C(=O)N[C@@H](CC(=O)O)C(=O)N[C@@H](Cc1ccccc1)C(=O)N[C@H](C(=O)N[C@@H](CCC(N)=O)C(=O)N[C@@H](Cc1c[nH]c2ccccc12)C(=O)N[C@@H](CC(C)C)C(=O)N[C@@H](CC(C)C)C(=O)N[C@@H](CC(=O)O)C(=O)NCC(=O)NCC(=O)N1CCC[C@H]1C(=O)N[C@@H](CO)C(=O)N[C@@H](CO)C(=O)NCC(=O)N[C@@H](C)C(=O)N1CCC[C@H]1C(=O)N1CCC[C@H]1C(=O)N1CCC[C@H]1C(=O)N[C@@H](CO)C(N)=O)C(C)C)C(=O)O` [Peptide 20], the EC50 was 8.32 pM in assay [1] (setting [6]), 5.01 pM in assay [2] (setting [6]) and 9.77 pM in assay [3] (setting [6]). Besides, the maximal response (Emax) turned out to be 99.5 ± 1.63% in assay [1] (HEK-293T), 101 ± 1.26% in assay [2] and 100.4 ± 0.94% in assay [3].

On to `CC[C@H](C)[C@H](NC(=O)[C@H](CC(C)C)NC(=O)[C@H](Cc1c[nH]c2ccccc12)NC(=O)[C@H](CCC(N)=O)NC(=O)[C@@H](NC(=O)[C@H](Cc1ccccc1)NC(=O)[C@H](C)NC(=O)[C@H](CCCCN)NC(=O)[C@H](CCC(N)=O)NC(=O)[C@H](C)NC(=O)[C@@H](NC(=O)[C@H](CCCCN)NC(=O)[C@H](CC(=O)O)NC(=O)[C@H](CC(C)C)NC(=O)C(C)(C)NC(=O)[C@@H](NC(=O)[C@H](CO)NC(=O)[C@H](Cc1ccc(O)cc1)NC(=O)[C@H](CC(=O)O)NC(=O)[C@H](CO)NC(=O)[C@@H](NC(=O)[C@H](Cc1ccccc1)NC(=O)[C@@H](NC(=O)CNC(=O)[C@H](CCC(=O)O)NC(=O)C(C)(C)NC(=O)[C@@H](N)Cc1ccc(O)cc1)[C@@H](C)O)[C@@H](C)O)[C@@H](C)CC)[C@@H](C)CC)C(C)C)C(=O)N[C@@H](C)C(=O)NCC(=O)NCC(=O)N1CCC[C@H]1C(=O)N[C@@H](CO)C(=O)N[C@@H](CO)C(=O)NCC(=O)N[C@@H](C)C(=O)N1CCC[C@H]1C(=O)N1CCC[C@H]1C(=O)N1CCC[C@H]1C(=O)N[C@@H](CO)C(N)=O` [Non-acylated tirzepatide], for which, in assay [4] (0.1% casein), the EC50 is 14.8 nM and the Emax amounted to 59.8 ± 1.01%. In assay [4] (0.1% BSA), this molecule came in with a maximal response (Emax) of 57.1 ± 1.97%.

With `CC[C@H](C)[C@H](NC(=O)[C@H](CC(C)C)NC(=O)[C@H](Cc1c[nH]c2ccccc12)NC(=O)[C@H](CCC(N)=O)NC(=O)[C@@H](NC(=O)[C@H](Cc1ccccc1)NC(=O)[C@H](C)NC(=O)[C@H](CCCCNC(=O)COCCOCCNC(=O)COCCOCCNC(=O)CC[C@H](NC(=O)CCCCCCCCCCCCCCCCCCC(=O)O)C(=O)O)NC(=O)[C@H](CCC(N)=O)NC(=O)[C@H](C)NC(=O)[C@@H](NC(=O)[C@H](CCCCN)NC(=O)[C@H](CC(=O)O)NC(=O)[C@H](CC(C)C)NC(=O)C(C)(C)NC(=O)[C@@H](NC(=O)[C@H](CO)NC(=O)[C@H](Cc1ccc(O)cc1)NC(=O)[C@H](CC(=O)O)NC(=O)[C@H](CO)NC(=O)[C@@H](NC(=O)[C@H](Cc1ccccc1)NC(=O)[C@@H](NC(=O)CNC(=O)[C@H](CCC(=O)O)NC(=O)C(C)(C)NC(=O)[C@@H](N)Cc1ccc(O)cc1)[C@@H](C)O)[C@@H](C)O)[C@@H](C)CC)[C@@H](C)CC)C(C)C)C(=O)N[C@@H](C)C(=O)NCC(=O)NCC(=O)N1CCC[C@H]1C(=O)N[C@@H](CO)C(=O)N[C@@H](CO)C(=O)NCC(=O)N[C@@H](C)C(=O)N1CCC[C@H]1C(=O)N1CCC[C@H]1C(=O)N1CCC[C@H]1C(=O)N[C@@H](CO)C(N)=O` [Tirzepatide], in assay [5], the Body weight is listed as -5.30 ~ -5.70 kg or %. For the same molecule, the Fasting plasma glucose in assay [5] is -60.70 ~ -74.20 mg/dL. Also, the EC50 in assay [4] (0.1% casein) is 18.6 nM. Moreover, the Emax is 53.4 ± 2.32% in assay [4] (0.1% BSA), 53.4 ± 1.93% in assay [4] (0.1% casein), 102 ± 2.33% in assay [2] and 99.1 ± 1.05% in assay [3].
